Measurements taken from patent US20100055198A1, “HARD SURFACE CLEANING AND DISINFECTING COMPOSITION” (Arkema Inc., priority 2007, published 2010).

How the values were obtained:
[1] = test system: gram-positive and gram-negative bacteria; assay: Disinfection properties overall (AOAC Use-Dilution); type: cell-based; conditions: low concentration (e.g. 3%), pH 7
Method: (§1) The testing was performed in accordance with the protocols outlined in “Use-dilution Method”, Protocols 955.14, 955.15 and 964.02 described in Chapter 6 of “Official Methods of Analysis”, 16th Edition, of the Association of Official Analytical Chemists; “Germicidal and Detergent Sanitizing Action of Disinfectants”, 960.09 described in Chapter 6 of “Official Methods of Analysis”, 15th Edition, of the Association of Official Analytical Chemists; or American Society for Testing and Materials (ASTM) E 1054-91 the contents of which are herein incorporated by reference. This test is also commonly referred to as the “AOAC Use-Dilution Test Method”. Testing was conducted starting with 10^5 to 10^6 CFU/ml bacteria concentration, 10 ml of the cleaning composition described in each example and test protocol outlined in the “AOAC Use-dilution Method”.

S. choleraesuis = assay: AOAC Use-Dilution disinfection test, S. choleraesuis; type: cell-based, Salmonella choleraesuis
Method: as §1

S. aureus = assay: AOAC Use-Dilution disinfection test, S. aureus; type: cell-based, Staphylococcus aureus
Method: as §1

P. aeruginosa = assay: AOAC Use-Dilution disinfection test, P. aeruginosa; type: cell-based, Pseudomonas aeruginosa
Method: as §1

[2] = pH 4.4, time 0 min (starting count)
[3] = pH 7.7, time 0 min (starting count)

Molecule | disinfectant property, in words [1] | S. choleraesuis (CFU/ml) (S. choleraesuis; [2]) | S. choleraesuis (CFU/ml) (S. choleraesuis; [3]) | killing gram positive bacteria (Staphylococus aureus), in words (S. aureus; acidic pH) | killing gram positive bacteria (Staphylococus aureus), in words (S. aureus; neutral pH) | S. aureus (CFU/ml) (S. aureus; [2]) | S. aureus (CFU/ml) (S. aureus; pH 4.4, time 5 min, average from two replicates) | S. aureus (CFU/ml) (S. aureus; [3]) | S. aureus (CFU/ml) (S. aureus; pH 7.7, time 5 min) | P. aeruginosa (CFU/ml) (P. aeruginosa; [2]) | P. aeruginosa (CFU/ml) (P. aeruginosa; [3])
CC(C)O [isopropanol, Isopropanol] | slight disinfectant property | – | – | – | – | – | – | – | – | – | –
hydrogen peroxide [3% H2O2] | – | 2.9 × 10^5 CFU/ml | 2.4 × 10^5 CFU/ml | not effective | not effective | 1.6 × 10^5 CFU/ml | 4.3 × 10^3 *^1 CFU/ml | 1.3 × 10^5 CFU/ml | 6.0 × 10^2 CFU/ml | 1.7 × 10^5 CFU/ml | 1.5 × 10^5 CFU/ml
